Test: xn = mol fraction of the nth substance listed
Conditions: Liquid

CCCCCC [hexane] + CCO
Conditions | mass density [kg/m3] | viscosity [mPa·s]
273.15 K, x2 = 0.101 | 688.8 | 0.3638
273.15 K, x2 = 0.198 | 694.5 | 0.4
273.15 K, x2 = 0.302 | 702 | 0.4511
273.15 K, x2 = 0.401 | 712.1 | 0.5478
273.15 K, x2 = 0.496 | 721.4 | 0.6415
273.15 K, x2 = 0.6 | 732.7 | 0.77
273.15 K, x2 = 0.701 | 744.1 | 0.8963
273.15 K, x2 = 0.793 | 760.4 | 1.096
273.15 K, x2 = 0.901 | 781.1 | 1.377
275.65 K, x2 = 0.101 | 686.5 | 0.3563
275.65 K, x2 = 0.198 | 692.3 | 0.3904
275.65 K, x2 = 0.302 | 699.7 | 0.4388
275.65 K, x2 = 0.401 | 709.8 | 0.5294
275.65 K, x2 = 0.496 | 719.2 | 0.6182
275.65 K, x2 = 0.6 | 730.5 | 0.7386
275.65 K, x2 = 0.701 | 741.9 | 0.8583
275.65 K, x2 = 0.793 | 758.3 | 1.047
275.65 K, x2 = 0.901 | 779 | 1.311
278.15 K, x2 = 0.101 | 684.3 | 0.3492
278.15 K, x2 = 0.198 | 690 | 0.3812
278.15 K, x2 = 0.302 | 697.5 | 0.4269
278.15 K, x2 = 0.401 | 707.6 | 0.5119
278.15 K, x2 = 0.496 | 716.9 | 0.5956
278.15 K, x2 = 0.6 | 728.3 | 0.709
278.15 K, x2 = 0.701 | 739.7 | 0.8224
278.15 K, x2 = 0.793 | 756.1 | 1
278.15 K, x2 = 0.901 | 776.8 | 1.25
280.65 K, x2 = 0.101 | 682 | 0.3422
280.65 K, x2 = 0.198 | 687.8 | 0.3722
280.65 K, x2 = 0.302 | 695.2 | 0.4154
280.65 K, x2 = 0.401 | 704.9 | 0.4927
280.65 K, x2 = 0.496 | 714.7 | 0.5741
280.65 K, x2 = 0.6 | 726.1 | 0.6809
280.65 K, x2 = 0.701 | 737.4 | 0.7884
280.65 K, x2 = 0.793 | 753.9 | 0.9561
280.65 K, x2 = 0.901 | 774.7 | 1.191
283.15 K, x2 = 0.101 | 679.8 | 0.3352
283.15 K, x2 = 0.198 | 685.5 | 0.3635
283.15 K, x2 = 0.302 | 692.9 | 0.4042
283.15 K, x2 = 0.401 | 702.7 | 0.4766
283.15 K, x2 = 0.496 | 712.4 | 0.5537
283.15 K, x2 = 0.6 | 723.8 | 0.6543
283.15 K, x2 = 0.701 | 735.2 | 0.7562
283.15 K, x2 = 0.793 | 751.7 | 0.9147
283.15 K, x2 = 0.901 | 772.5 | 1.136
285.65 K, x2 = 0.101 | 677.5 | 0.3283
285.65 K, x2 = 0.198 | 683.2 | 0.3549
285.65 K, x2 = 0.302 | 690.6 | 0.3934
285.65 K, x2 = 0.401 | 700.4 | 0.4614
285.65 K, x2 = 0.496 | 710.1 | 0.5343
285.65 K, x2 = 0.6 | 721.5 | 0.629
285.65 K, x2 = 0.701 | 733 | 0.7257
285.65 K, x2 = 0.793 | 749.5 | 0.8754
285.65 K, x2 = 0.901 | 770.4 | 1.085
288.15 K, x2 = 0.101 | 675.2 | 0.3215
288.15 K, x2 = 0.198 | 680.9 | 0.346
288.15 K, x2 = 0.302 | 688.3 | 0.383
288.15 K, x2 = 0.401 | 698.1 | 0.4239
288.15 K, x2 = 0.496 | 707.9 | 0.5159
288.15 K, x2 = 0.6 | 719.3 | 0.6052
288.15 K, x2 = 0.701 | 730.8 | 0.6967
288.15 K, x2 = 0.793 | 747.3 | 0.8384
288.15 K, x2 = 0.901 | 768.2 | 1.036
290.65 K, x2 = 0.101 | 672.8 | 0.3147
290.65 K, x2 = 0.198 | 678.6 | 0.3366
290.65 K, x2 = 0.302 | 686 | 0.3728
290.65 K, x2 = 0.401 | 695.8 | 0.433
290.65 K, x2 = 0.496 | 705.5 | 0.498
290.65 K, x2 = 0.6 | 717 | 0.5822
290.65 K, x2 = 0.701 | 728.5 | 0.6691
290.65 K, x2 = 0.793 | 745.1 | 0.8031
290.65 K, x2 = 0.901 | 766 | 0.9898
293.15 K, x2 = 0 | 659.8 | 0.2979
293.15 K, x2 = 0.101 | 670.5 | 0.308
293.15 K, x2 = 0.198 | 676.2 | 0.3264
293.15 K, x2 = 0.302 | 683.7 | 0.3597
293.15 K, x2 = 0.401 | 693.5 | 0.3995
293.15 K, x2 = 0.496 | 703.2 | 0.4493
293.15 K, x2 = 0.6 | 714.7 | 0.5606
293.15 K, x2 = 0.701 | 726.2 | 0.643
293.15 K, x2 = 0.793 | 742.8 | 0.7696
293.15 K, x2 = 0.901 | 763.9 | 0.9463
295.65 K, x2 = 0.101 | 668.2 | 0.3016
295.65 K, x2 = 0.198 | 673.9 | 0.3161
295.65 K, x2 = 0.302 | 681.4 | 0.3499
295.65 K, x2 = 0.401 | 691.1 | 0.3949
295.65 K, x2 = 0.496 | 700.9 | 0.4437
295.65 K, x2 = 0.6 | 712.4 | 0.5401
295.65 K, x2 = 0.701 | 724 | 0.6182
295.65 K, x2 = 0.793 | 740.6 | 0.7377
295.65 K, x2 = 0.901 | 761.7 | 0.9052
298.15 K, x2 = 0 | 655.3 | 0.2865
298.15 K, x2 = 0.101 | 665.9 | 0.2953
298.15 K, x2 = 0.198 | 671.5 | 0.3049
298.15 K, x2 = 0.302 | 679 | 0.3398
298.15 K, x2 = 0.401 | 688.8 | 0.3755
298.15 K, x2 = 0.496 | – | 0.4288
298.15 K, x2 = 0.6 | 710.1 | 0.5021
298.15 K, x2 = 0.701 | 721.7 | 0.5944
298.15 K, x2 = 0.793 | 738.3 | 0.7071
298.15 K, x2 = 0.901 | 759.5 | 0.8663

From the NIST ThermoML archive (doi:10.1021/je800925v)
